# In patent publication US6432958B1, “2-piperazinoalkylaminobenzoazole derivatives: dopamine receptor subtype specific ligands” (Neurogen Corporation, priority 1998, dated 2002):
# Key:
# [1] = target: T1, D2 receptors from human (Homo sapiens, UniProt P14416); assay: D2 receptor binding assay (3H-YM 09151-2 displacement); settings: COS cells containing recombinantly produced human D2 receptors; 0.5 nM 3H-YM 09151-2
# T1 construct: expressed in transfected cells; host or cells: COS cells
# Procedure: (§1) Assays for D2, D3 and D4 Receptor Binding Activity
# (§2) Pellets of COS cells containing recombinantly produced D2 or D4 receptors from human are used for the assays. The sample is homogenized in 100 volumes (w/vol) of 0.05 M Tris HCl buffer at 4° C. and pH 7.4. The sample is then centrifuged at 30,000×g and resuspended and rehomogenized. The sample is then centrifuged again at 30,000×g and the final tissue sample is frozen until use. The tissue is resuspended 1:20 (wt/vol) in 0.05 M Tris HCl buffer containing 100 mM NaCl.
# (§3) Incubations are carried out a […] and contain 0.4 ml of tissue sample, 0.5 nM ^3H-YM 09151-2 (Nemonapride, cis-5-Chloro-2-methoxy-4-(methylamino)-N-(2-methyl-2-(phenylmethyl)-3-pyrrolidinyl)benzamide) and the compound of interest in a total incubation of 1.0 ml. Nonspecific binding is defined as that binding found in the presence of […] spiperone; without further additions, nonspecific binding is less than 20% of total binding.
# [2] = target: T2, D4 receptors from human (Homo sapiens, UniProt P21917); assay: D4 receptor binding assay (3H-YM 09151-2 displacement); settings: COS cells containing recombinantly produced human D4 receptors; 0.5 nM 3H-YM 09151-2
# T2 construct: expressed in transfected cells; host or cells: COS cells
# T2 sequence (P21917 1-419): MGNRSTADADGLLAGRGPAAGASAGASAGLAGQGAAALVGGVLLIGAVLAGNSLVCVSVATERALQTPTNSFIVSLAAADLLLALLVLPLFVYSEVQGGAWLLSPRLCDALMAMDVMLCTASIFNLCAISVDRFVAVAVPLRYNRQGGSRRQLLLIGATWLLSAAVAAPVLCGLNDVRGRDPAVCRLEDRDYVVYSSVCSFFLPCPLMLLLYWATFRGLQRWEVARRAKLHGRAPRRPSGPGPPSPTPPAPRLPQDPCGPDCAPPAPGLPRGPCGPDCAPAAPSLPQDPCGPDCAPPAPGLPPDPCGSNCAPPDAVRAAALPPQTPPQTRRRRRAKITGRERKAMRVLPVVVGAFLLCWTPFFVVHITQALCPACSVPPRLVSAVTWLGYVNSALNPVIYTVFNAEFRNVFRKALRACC
# Procedure: as §1, §2, §3
# T1 sequence (P14416 whole entry): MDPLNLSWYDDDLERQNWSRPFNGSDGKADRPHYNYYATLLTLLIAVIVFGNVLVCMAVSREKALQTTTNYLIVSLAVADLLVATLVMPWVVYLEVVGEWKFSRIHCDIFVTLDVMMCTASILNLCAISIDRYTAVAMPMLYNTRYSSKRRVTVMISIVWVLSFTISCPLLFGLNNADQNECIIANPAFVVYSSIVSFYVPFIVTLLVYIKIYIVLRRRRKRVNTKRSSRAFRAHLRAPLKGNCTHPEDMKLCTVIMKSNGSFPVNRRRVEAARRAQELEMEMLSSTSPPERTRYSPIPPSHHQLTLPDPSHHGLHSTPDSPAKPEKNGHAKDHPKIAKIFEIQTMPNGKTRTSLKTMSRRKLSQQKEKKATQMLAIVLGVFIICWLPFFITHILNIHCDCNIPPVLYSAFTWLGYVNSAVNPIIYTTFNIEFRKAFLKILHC
Compound,melting point,Ki [1],Ki [2]
Br.COc1ccccc1N1CCN(CCNc2nc3c(OC)cccc3s2)CC1,171 to 173 °C,,
Br.COc1ccccc1N1CCN(CCNc2nc3c(C)cccc3s2)CC1,226 to 227 °C,,
Br.COc1ccccc1N1CCN(CCNc2nc3c(Cl)cccc3s2)CC1,194 to 195 °C,,
Br.CCOc1ccc2nc(NCCN3CCN(c4ccccc4OC)CC3)sc2c1,227 to 228 °C,,
Br.COc1ccccc1N1CCN(CCNc2nc3ccc(S(C)(=O)=O)cc3s2)CC1,190 to 196 °C,,
Br.Fc1ccc2nc(NCCN3CCN(Cc4ccc(Cl)cc4)CC3)sc2c1,238 to 240 °C,,
Br.CCOc1ccccc1N1CCN(CCNc2nc3ccc(F)cc3s2)CC1,235 to 237 °C,,
Br.Fc1ccc2nc(NCCN3CCN(c4cccc(C(F)(F)F)c4)CC3)sc2c1,259 to 261 °C,,
Br.Fc1ccc(N2CCN(CCNc3nc4ccc(F)cc4s3)CC2)cc1,270 to 271 °C,,
Br.CC(C)Oc1ccccc1N1CCN(CCNc2nc3ccc(F)cc3s2)CC1,216 to 217 °C,,
Cl.c1cnc(N2CCN(CCNc3nc4ccccc4o3)CC2)nc1,197 to 202 °C,,
Br.COc1ccccc1N1CCN(CCNc2nc3ccccc3[nH]2)CC1,215 to 216 °C,,
Br.c1ccc(N2CCN(CCNc3nc4ccccc4[nH]3)CC2)cc1,241 to 247 °C,,
Br.c1ccc(N2CCN(CCNc3nc4ccccc4[nH]3)CC2)nc1,290 to 291 °C,,
Br.COc1ccccc1N1CCN(CCNc2nc3ccccc3n2C)CC1,273 to 274 °C,,
Br.CC(C)Oc1ccccc1N1CCN(CCNc2nc3ccccc3n2C)CC1,285 °C (dec.),,
Br.CCn1c(NCCN2CCN(c3ccccc3OC)CC2)nc2ccccc21,109 to 110 °C,,
Br.CCn1c(NCCN2CCN(c3ccccc3)CC2)nc2ccccc21,270 °C (dec.),,
"Br.Cn1c(NCCN2CCN(c3cccc(C(F)(F)F)c3)CC2)nc2ccccc21 [Compound 1, 1-(3-Trifluoromethylphenyl)-4-(2-[1-methylbenzimidazol-2-yl]aminoethyl)piperazine hydrobromide]",283 °C (dec.),> 10000 nM,3 nM
"Cl.c1ccc(N2CCN(CCNc3nc4ccccc4o3)CC2)nc1 [Compound 3, 1-(Pyridin-2-yl)-4-(2-[benzoxazol-2-yl]aminoethyl)piperazine hydrochloride]",255 to 265 °C,> 10000 nM,11 nM

# The remaining lines, values ahead:
melting point,Ki [1],Ki [2],Compound
167 to 170 °C,,,Cc1cnc(N2CCN(CCNc3nc4ccccc4s3)CC2)nc1.O=C(O)/C=C/C(=O)O.O=C(O)/C=C/C(=O)O
131 to 132 °C,,,O=C(O)/C=C/C(=O)O.O=C(O)/C=C/C(=O)O.c1ccc(N2CCN(CCNc3nc4ccccc4s3)CC2)cc1
159 to 160 °C,,,O=C(O)/C=C/C(=O)O.O=C(O)/C=C/C(=O)O.c1ccc(N2CCN(CCNc3nc4ccccc4s3)CC2)nc1
230 to 232 °C,,,Cl.Cl.Clc1ccc(N2CCN(CCNc3nc4ccccc4s3)CC2)cc1
229 to 231 °C,,,Cl.Cl.Fc1ccc(N2CCN(CCNc3nc4ccccc4s3)CC2)cc1
101 to 103 °C,,,COc1ccccc1N1CCN(CCNc2nc3ccccc3s2)CC1.O=C(O)/C=C/C(=O)O.O=C(O)/C=C/C(=O)O
195 to 197 °C,,,Br.COc1ccccc1N1CCN(CCCNc2nc3ccccc3s2)CC1
179 to 180 °C,,,Fc1ccc2nc(NCCN3CCN(c4ncccn4)CC3)sc2c1.O=C(O)/C=C/C(=O)O.O=C(O)/C=C/C(=O)O
228 to 229 °C,,,Fc1ccc2nc(NCCN3CCN(Cc4ccccc4)CC3)sc2c1.O=C(O)/C=C/C(=O)O.O=C(O)/C=C/C(=O)O
279 to 281 °C,,,Br.Fc1cnc(N2CCN(CCNc3nc4ccc(F)cc4s3)CC2)nc1
240 to 250 °C,,,Br.Cc1cnc(N2CCN(CCNc3nc4ccc(F)cc4s3)CC2)nc1
259 to 260 °C,,,Br.Fc1ccc2nc(NCCN3CCN(c4ccccn4)CC3)sc2c1
268 to 270 °C,,,Br.Fc1ccc2nc(NCCN3CCN(c4ccccc4)CC3)sc2c1
161 to 163 °C,,,O=C(O)/C=C/C(=O)O.O=C(O)/C=C/C(=O)O.c1cnc(N2CCN(CCNc3nc4ccccc4s3)CC2)nc1
174 to 175 °C,,,Fc1cnc(N2CCN(CCNc3nc4ccccc4s3)CC2)nc1.O=C(O)/C=C/C(=O)O.O=C(O)/C=C/C(=O)O
,175 nM,1 nM,"COc1ccccc1N1CCN(CCNc2nc3ccc(F)cc3s2)CC1 [Compound 2, 1-(2-Methoxyphenyl)-4-(2-[6-fluorobenzothiazol-2-ylamino]ethyl)piperazine difumarate]"
,1640 nM,6 nM,Fc1cnc(N2CCN(CCCCNc3nc4ccccc4s3)CC2)nc1 [Compound 6]
